Data from US10463644B2, “Uses of sesquiterpene lactone compounds and their derivatives in drugs preparation” (ACCENDATECH, priority 2013, dated 2019).
Read-outs that look alike come from different tables or passages of the source.

What was measured:
[1] = test system: TNF-α secreted by synoviocyte; test: Content of TNF-α in culture supernatant of synoviocyte of RA model rats given test compound; assay type: in vivo; settings: rat RA model, dose 30 mg/kg.2d; normal control 0.38 ± 0.027, NaCl 0.74 ± 0.098
How it was run: (§1)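 RA model rats received test compound at 30 mg/kg.2d, with normal control and NaCl groups run in parallel. Synoviocytes were then cultured from the animals, and the culture supernatant was assayed for secreted cytokine or PGE2.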

[2] = test system: cancer cells; test: Survival rate of cancer cells after test compound is added (flow cytometry, Annexin V-FITC/PI, clinical specimen); assay type: cell-based, patient; settings: Homo sapiens, 18 h, read-out: Survival rate (%) All cells (Stem cells and ordinary cells)
How it was run: (§2)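 Patient specimens (e.g. AML, CD34+/CD38+ stem-cell marker) separated on Ficoll; mononuclear cells at 1×10^6/mL in serum-free IMDM treated 18 h with compound. Cells stained for stem-cell markers, then Annexin V-FITC/PI, and apoptosis measured by flow cytometry within one hour.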

[3] = test system: IL-1β secreted by synoviocyte; test: Content of IL-1β in culture supernatant of synoviocyte of RA model rats given test compound; assay type: in vivo; settings: rat RA model, dose 30 mg/kg.2d; normal control 0.16 ± 0.034, NaCl 0.49 ± 0.136
How it was run: as §1

[4] = test system: cancer stem cells; test: Survival rate of cancer stem cells after test compound is added (flow cytometry, Annexin V-FITC/PI, clinical specimen); assay type: cell-based, patient; settings: Homo sapiens, 18 h
How it was run: as §2

[5] = test system: normal cells; test: Survival rate of normal cells after test compound is added (flow cytometry, Annexin V-FITC/PI); assay type: cell-based; settings: 18 h
How it was run: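 Survival was determined in clinical specimens after an 18 h compound treatment, using Annexin V-FITC/PI apoptosis staining and flow cytometry.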

[6] = Head and neck squamous cell carcinomas
[7] = read-out: Survival rate (%) All cells (Stem cells and ordinary cells)
[8] = read-out: Survival rate (%) Stem cells

C=C1C(=O)O[C@@H]2[C@@H]3[C@@H](CCC34CC4)C3(CC[C@@H]12)CC3 [Compound 26]
Content of TNF-α in culture supernatant of synoviocyte (x ± s) [1]: 0.59 ± 0.051 ng/mL | viability at 10 µM ([2]; AML): 93% | viability at 20 µM ([2]; AML): 85% | viability at 10 µM ([2]; Brain glioma): 88% | viability at 20 µM ([2]; Brain glioma): 85% | viability at 10 µM ([2]; Brain tumor): 89% | viability at 20 µM ([2]; Brain tumor): 85% | viability at 10 µM ([2]; Breast cancer): 89% | viability at 20 µM ([2]; Breast cancer): 86% | viability at 10 µM ([2]; CLL): 93% | viability at 20 µM ([2]; CLL): 85% | viability at 10 µM ([2]; CML): 92% | viability at 20 µM ([2]; CML): 79% | viability at 10 µM ([2]; Children hepatoblastoma): 93% | viability at 20 µM ([2]; Children hepatoblastoma): 86% | viability at 10 µM ([2]; Colon adenocarcinoma): 91% | viability at 20 µM ([2]; Colon adenocarcinoma): 89% | viability at 10 µM ([2]; Colorectal cancer): 87% | viability at 20 µM ([2]; Colorectal cancer): 81% | viability at 10 µM ([2]; Gastric cancer): 88% | viability at 20 µM ([2]; Gastric cancer): 84% | viability at 10 µM ([2]; Gastrointestinal tumor): 93% | viability at 20 µM ([2]; Gastrointestinal tumor): 88% | viability at 10 µM ([2]; Glioma): 94% | viability at 20 µM ([2]; Glioma): 87% | viability at 10 µM [2, 6]: 91% | viability at 20 µM [2, 6]: 88% | viability at 10 µM ([2]; Laryngeal cancer): 88% | viability at 20 µM ([2]; Laryngeal cancer): 82% | viability at 10 µM ([2]; Liver cancer): 89% | viability at 20 µM ([2]; Liver cancer): 87% | viability at 10 µM ([2]; Lung adenocarcinoma): 91% | viability at 20 µM ([2]; Lung adenocarcinoma): 87% | viability at 10 µM ([2]; Lung cancer): 88% | viability at 20 µM ([2]; Lung cancer): 84% | viability at 10 µM ([2]; Malignant melanoma): 88% | viability at 20 µM ([2]; Malignant melanoma): 86% | viability at 10 µM ([2]; Nasopharynx cancer): 94% | viability at 20 µM ([2]; Nasopharynx cancer): 81% | viability at 10 µM ([2]; Ovarian cancer): 91% | viability at 20 µM ([2]; Ovarian cancer): 84% | viability at 10 µM ([2]; Pancreatic cancer): 90% | viability at 20 µM ([2]; Pancreatic cancer): 86% | viability at 10 µM ([2]; Prostate cancer): 92% | viability at 20 µM ([2]; Prostate cancer): 89% | viability at 10 µM ([2]; Retinoblastoma): 91% | viability at 20 µM ([2]; Retinoblastoma): 85% | viability at 10 µM ([2]; Skin cancer): 94% | viability at 20 µM ([2]; Skin cancer): 87% | Content of IL-1β in culture supernatant of synoviocyte (x ± s) [3]: 0.42 ± 0.052 ng/mL | viability at 10 µM ([4]; AML): 86% | viability at 20 µM ([4]; AML): 73% | viability at 10 µM ([4]; Brain glioma): 84% | viability at 20 µM ([4]; Brain glioma): 76% | viability at 10 µM ([4]; Brain tumor): 84% | viability at 20 µM ([4]; Brain tumor): 73% | viability at 10 µM ([4]; Breast cancer): 85% | viability at 20 µM ([4]; Breast cancer): 74% | viability at 10 µM ([4]; CLL): 84% | viability at 20 µM ([4]; CLL): 74% | viability at 10 µM ([4]; CML): 88% | viability at 20 µM ([4]; CML): 76% | viability at 10 µM ([4]; Children hepatoblastoma): 85% | viability at 20 µM ([4]; Children hepatoblastoma): 79% | viability at 10 µM ([4]; Colon adenocarcinoma): 86% | viability at 20 µM ([4]; Colon adenocarcinoma): 81% | viability at 10 µM ([4]; Colorectal cancer): 79% | viability at 20 µM ([4]; Colorectal cancer): 72% | viability at 10 µM ([4]; Gastric cancer): 83% | viability at 20 µM ([4]; Gastric cancer): 77% | viability at 10 µM ([4]; Gastrointestinal tumor): 87% | viability at 20 µM ([4]; Gastrointestinal tumor): 82% | viability at 10 µM ([4]; Glioma): 87% | viability at 20 µM ([4]; Glioma): 76% | viability at 10 µM [4, 6]: 84% | viability at 20 µM [4, 6]: 78% | viability at 10 µM ([4]; Laryngeal cancer): 80% | viability at 20 µM ([4]; Laryngeal cancer): 75% | viability at 10 µM ([4]; Liver cancer): 82% | viability at 20 µM ([4]; Liver cancer): 79% | viability at 10 µM ([4]; Lung adenocarcinoma): 85% | viability at 20 µM ([4]; Lung adenocarcinoma): 82% | viability at 10 µM ([4]; Lung cancer): 82% | viability at 20 µM ([4]; Lung cancer): 78% | viability at 10 µM ([4]; Malignant melanoma): 82% | viability at 20 µM ([4]; Malignant melanoma): 76% | viability at 10 µM ([4]; Nasopharynx cancer): 85% | viability at 20 µM ([4]; Nasopharynx cancer): 74% | viability at 10 µM ([4]; Ovarian cancer): 86% | viability at 20 µM ([4]; Ovarian cancer): 75% | viability at 10 µM ([4]; Pancreatic cancer): 86% | viability at 20 µM ([4]; Pancreatic cancer): 77% | viability at 10 µM ([4]; Prostate cancer): 86% | viability at 20 µM ([4]; Prostate cancer): 77% | viability at 10 µM ([4]; Retinoblastoma): 82% | viability at 20 µM ([4]; Retinoblastoma): 74% | viability at 10 µM ([4]; Skin cancer): 86% | viability at 20 µM ([4]; Skin cancer): 75% | viability at 10 µM [5, 7]: 95% | viability at 10 µM [5, 8]: 94% | viability at 20 µM [5, 7]: 94% | viability at 20 µM [5, 8]: 93%
